Results from patent US20250296938A1, “Compounds that Interact with the Ras Superfamily for the Treatment of Cancers, Inflammatory Diseases, Rasopathies, and Fibrotic Disease” (SHY Therapeutics, LLC, priority 2018, published 2025).

System: KRas G12C mutant
Assay: Ras GTP binding domain inhibition assay (Cy3-GTP/Cy5-GTP competition)
Design: species or system human
Conditions: 20 μM; with SOS
Procedure, shortened: (§1)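 His-tagged Ras proteins were captured on nickel-coated wells in Buffer-I (25 mM Tris-HCl pH 7.4, 27 mM KCl, 137 mM NaCl, 1 mM MgCl2, 1 mM DTT) or Buffer-II (50 mM Tris-HCl pH 7.0). Compounds (20 μM or serial dilution, 1% DMSO) were incubated 3 h at RT, ±Sos(556-1049) in the final hour. Bound Cy3-/Cy5-GTP (100 nM, 45 min) was read after washing.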

KRas G12C mutant + SOS: % inh.	Compound
A (1-25% inhibition)	Oc1nc(-c2cn(-c3ccccc3)cn2)nc2c(-c3ccccn3)csc12 [drawing 847]
A (1-25% inhibition)	Oc1nc(-c2cn3cccnc3n2)nc2c(-c3ccccn3)csc12 [drawing 848]
C (51-75% inhibition)	COC1CCN(c2nc(-c3nccn3C)nc3sc(-c4ccccc4Cl)c(-c4cscn4)c23)C1 (stereo not shown) [drawing 849]
D (76-100% inhibition)	COc1cccc(Cn2ccnc2-c2nc(O)c3scc(-c4ccccn4)c3n2)c1 [drawing 850]
D (76-100% inhibition)	Oc1nc(-c2nccn2Cc2ccccn2)nc2c(-c3ccccn3)csc12 [drawing 851]
D (76-100% inhibition)	COCCn1ccnc1-c1nc(O)c2scc(-c3ccccn3)c2n1 [drawing 852]
C (51-75% inhibition)	Cn1ccnc1-c1nc(O)c2scc(-c3ccccn3)c2n1 [drawing 853]
D (76-100% inhibition)	COCC(C)Nc1nc(-c2nccn2C)nc2sc(-c3ccccc3Cl)c(-c3cscn3)c12 (stereo not shown) [drawing 854]

Same assay, conditions: 20 μM; without SOS

KRas G12C mutant: % inh.	Compound
0 (0% inhibition)	Oc1nc(-c2cn(-c3ccccc3)cn2)nc2c(-c3ccccn3)csc12 [drawing 847]
0 (0% inhibition)	Oc1nc(-c2cn3cccnc3n2)nc2c(-c3ccccn3)csc12 [drawing 848]
B (26-50% inhibition)	COC1CCN(c2nc(-c3nccn3C)nc3sc(-c4ccccc4Cl)c(-c4cscn4)c23)C1 (stereo not shown) [drawing 849]
C (51-75% inhibition)	COc1cccc(Cn2ccnc2-c2nc(O)c3scc(-c4ccccn4)c3n2)c1 [drawing 850]
D (76-100% inhibition)	Oc1nc(-c2nccn2Cc2ccccn2)nc2c(-c3ccccn3)csc12 [drawing 851]
C (51-75% inhibition)	COCCn1ccnc1-c1nc(O)c2scc(-c3ccccn3)c2n1 [drawing 852]
D (76-100% inhibition)	Cn1ccnc1-c1nc(O)c2scc(-c3ccccn3)c2n1 [drawing 853]
C (51-75% inhibition)	COCC(C)Nc1nc(-c2nccn2C)nc2sc(-c3ccccc3Cl)c(-c3cscn3)c12 (stereo not shown) [drawing 854]

System: KRas Q61H mutant
Assay: as above
Design: species or system human
Conditions: 20 μM; with SOS
Procedure, shortened: as §1

KRas Q61H mutant + SOS: % inh.	Compound
A (1-25% inhibition)	Oc1nc(-c2cn(-c3ccccc3)cn2)nc2c(-c3ccccn3)csc12 [drawing 847]
A (1-25% inhibition)	Oc1nc(-c2cn3cccnc3n2)nc2c(-c3ccccn3)csc12 [drawing 848]
C (51-75% inhibition)	COC1CCN(c2nc(-c3nccn3C)nc3sc(-c4ccccc4Cl)c(-c4cscn4)c23)C1 (stereo not shown) [drawing 849]
D (76-100% inhibition)	COc1cccc(Cn2ccnc2-c2nc(O)c3scc(-c4ccccn4)c3n2)c1 [drawing 850]
D (76-100% inhibition)	Oc1nc(-c2nccn2Cc2ccccn2)nc2c(-c3ccccn3)csc12 [drawing 851]
C (51-75% inhibition)	COCCn1ccnc1-c1nc(O)c2scc(-c3ccccn3)c2n1 [drawing 852]
C (51-75% inhibition)	Cn1ccnc1-c1nc(O)c2scc(-c3ccccn3)c2n1 [drawing 853]
D (76-100% inhibition)	COCC(C)Nc1nc(-c2nccn2C)nc2sc(-c3ccccc3Cl)c(-c3cscn3)c12 (stereo not shown) [drawing 854]

Same assay, conditions: 20 μM; without SOS

KRas Q61H mutant: % inh.	Compound
B (26-50% inhibition)	Oc1nc(-c2cn(-c3ccccc3)cn2)nc2c(-c3ccccn3)csc12 [drawing 847]
A (1-25% inhibition)	Oc1nc(-c2cn3cccnc3n2)nc2c(-c3ccccn3)csc12 [drawing 848]
B (26-50% inhibition)	COC1CCN(c2nc(-c3nccn3C)nc3sc(-c4ccccc4Cl)c(-c4cscn4)c23)C1 (stereo not shown) [drawing 849]
C (51-75% inhibition)	COc1cccc(Cn2ccnc2-c2nc(O)c3scc(-c4ccccn4)c3n2)c1 [drawing 850]
C (51-75% inhibition)	Oc1nc(-c2nccn2Cc2ccccn2)nc2c(-c3ccccn3)csc12 [drawing 851]
C (51-75% inhibition)	COCCn1ccnc1-c1nc(O)c2scc(-c3ccccn3)c2n1 [drawing 852]
D (76-100% inhibition)	Cn1ccnc1-c1nc(O)c2scc(-c3ccccn3)c2n1 [drawing 853]
C (51-75% inhibition)	COCC(C)Nc1nc(-c2nccn2C)nc2sc(-c3ccccc3Cl)c(-c3cscn3)c12 (stereo not shown) [drawing 854]

System: KRas wild type
Assay: as above
Design: species or system human
Conditions: 20 μM; with SOS
Procedure, shortened: as §1

KRas wild type + SOS: % inh.	Compound
A (1-25% inhibition)	Oc1nc(-c2cn(-c3ccccc3)cn2)nc2c(-c3ccccn3)csc12 [drawing 847]
A (1-25% inhibition)	Oc1nc(-c2cn3cccnc3n2)nc2c(-c3ccccn3)csc12 [drawing 848]
C (51-75% inhibition)	COC1CCN(c2nc(-c3nccn3C)nc3sc(-c4ccccc4Cl)c(-c4cscn4)c23)C1 (stereo not shown) [drawing 849]
C (51-75% inhibition)	COc1cccc(Cn2ccnc2-c2nc(O)c3scc(-c4ccccn4)c3n2)c1 [drawing 850]
C (51-75% inhibition)	Oc1nc(-c2nccn2Cc2ccccn2)nc2c(-c3ccccn3)csc12 [drawing 851]
C (51-75% inhibition)	COCCn1ccnc1-c1nc(O)c2scc(-c3ccccn3)c2n1 [drawing 852]
C (51-75% inhibition)	Cn1ccnc1-c1nc(O)c2scc(-c3ccccn3)c2n1 [drawing 853]
D (76-100% inhibition)	COCC(C)Nc1nc(-c2nccn2C)nc2sc(-c3ccccc3Cl)c(-c3cscn3)c12 (stereo not shown) [drawing 854]

Same assay, conditions: 20 μM; without SOS

KRas wild type: % inh.	Compound
A (1-25% inhibition)	Oc1nc(-c2cn(-c3ccccc3)cn2)nc2c(-c3ccccn3)csc12 [drawing 847]
A (1-25% inhibition)	Oc1nc(-c2cn3cccnc3n2)nc2c(-c3ccccn3)csc12 [drawing 848]
C (51-75% inhibition)	COC1CCN(c2nc(-c3nccn3C)nc3sc(-c4ccccc4Cl)c(-c4cscn4)c23)C1 (stereo not shown) [drawing 849]
C (51-75% inhibition)	COc1cccc(Cn2ccnc2-c2nc(O)c3scc(-c4ccccn4)c3n2)c1 [drawing 850]
D (76-100% inhibition)	Oc1nc(-c2nccn2Cc2ccccn2)nc2c(-c3ccccn3)csc12 [drawing 851]
D (76-100% inhibition)	COCCn1ccnc1-c1nc(O)c2scc(-c3ccccn3)c2n1 [drawing 852]
D (76-100% inhibition)	Cn1ccnc1-c1nc(O)c2scc(-c3ccccn3)c2n1 [drawing 853]
B (26-50% inhibition)	COCC(C)Nc1nc(-c2nccn2C)nc2sc(-c3ccccc3Cl)c(-c3cscn3)c12 (stereo not shown) [drawing 854]

Target: T1, KRas G12D mutant (Homo sapiens, UniProt P01116, G12D)
T1 construct: fused on or other part: His tag, used for capture on nickel-coated plates
Assay: as above
Conditions: 20 μM; with SOS; read-out: KRas G-12D mutant + SOS: % inh.
Procedure, shortened: as §1

inhibition at 20 µM	Compound
1 to 25%	Oc1nc(-c2cn(-c3ccccc3)cn2)nc2c(-c3ccccn3)csc12 [drawing 847]
1 to 25%	Oc1nc(-c2cn3cccnc3n2)nc2c(-c3ccccn3)csc12 [drawing 848]
51 to 75%	COC1CCN(c2nc(-c3nccn3C)nc3sc(-c4ccccc4Cl)c(-c4cscn4)c23)C1 (stereo not shown) [drawing 849]
51 to 75%	COc1cccc(Cn2ccnc2-c2nc(O)c3scc(-c4ccccn4)c3n2)c1 [drawing 850]
51 to 75%	Oc1nc(-c2nccn2Cc2ccccn2)nc2c(-c3ccccn3)csc12 [drawing 851]
51 to 75%	COCCn1ccnc1-c1nc(O)c2scc(-c3ccccn3)c2n1 [drawing 852]
51 to 75%	Cn1ccnc1-c1nc(O)c2scc(-c3ccccn3)c2n1 [drawing 853]
51 to 75%	COCC(C)Nc1nc(-c2nccn2C)nc2sc(-c3ccccc3Cl)c(-c3cscn3)c12 (stereo not shown) [drawing 854]

Same assay, conditions: 20 μM; without SOS; read-out: KRas G12D mutant: % inh.

inhibition at 20 µM	Compound
1 to 25%	Oc1nc(-c2cn(-c3ccccc3)cn2)nc2c(-c3ccccn3)csc12 [drawing 847]
1 to 25%	Oc1nc(-c2cn3cccnc3n2)nc2c(-c3ccccn3)csc12 [drawing 848]
51 to 75%	COC1CCN(c2nc(-c3nccn3C)nc3sc(-c4ccccc4Cl)c(-c4cscn4)c23)C1 (stereo not shown) [drawing 849]
76 to 100%	COc1cccc(Cn2ccnc2-c2nc(O)c3scc(-c4ccccn4)c3n2)c1 [drawing 850]
76 to 100%	Oc1nc(-c2nccn2Cc2ccccn2)nc2c(-c3ccccn3)csc12 [drawing 851]
76 to 100%	COCCn1ccnc1-c1nc(O)c2scc(-c3ccccn3)c2n1 [drawing 852]
76 to 100%	Cn1ccnc1-c1nc(O)c2scc(-c3ccccn3)c2n1 [drawing 853]
51 to 75%	COCC(C)Nc1nc(-c2nccn2C)nc2sc(-c3ccccc3Cl)c(-c3cscn3)c12 (stereo not shown) [drawing 854]
